This is an account of results in ChEMBL document CHEMBL3797052 (Eur J Med Chem, 2016).

One may read the GI50 as the concentration that inhibits growth by half. One may read the TGI as the concentration at which net growth stops.

What all share (format): functional
One experiment has as its system CCRF-CEM. Kind of experiment: Antiproliferative activity against human CCRF-CEM cells assessed as cell growth at 10^-5 M after 48 hrs by sulforhodamine B assay. The note with it: read-out: Activity. (In general: The SRB assay estimates cell density from bound dye.)
The nature of experiment [1]: Antiproliferative activity against human HL-60(TB) cells assessed as cell growth at 10^-5 M after 48 hrs by sulforhodamine B assay. The note with it: HL-60, 48 h, read-out: Activity.
The subject of a further experiment is K562. Kind of experiment: Antiproliferative activity against human K562 cells assessed as cell growth at 10^-5 M after 48 hrs by sulforhodamine B assay. To be noted: K562, 48 h, read-out: Activity.
Experiment [2] can be described thus: Antiproliferative activity against human RPMI8226 cells assessed as cell growth at 10^-5 M after 48 hrs by sulforhodamine B assay. The note with it: RPMI-8226, 48 h, read-out: Activity.
Another experiment concerns NCI-H23. Kind of experiment: Antiproliferative activity against human NCI-H23 cells assessed as cell growth at 10^-5 M after 48 hrs by sulforhodamine B assay. The note with it: NCI-H23, 48 h, read-out: Activity.
The subject of the next experiment is HT-29. Kind of experiment: Antiproliferative activity against human HT-29 cells assessed as cell growth at 10^-5 M after 48 hrs by sulforhodamine B assay. To be noted: HT-29, 48 h, read-out: Activity.
A short description of experiment [3]: Antiproliferative activity against human SW620 cells assessed as cell growth at 10^-5 M after 48 hrs by sulforhodamine B assay. The note with it: SW-620, 48 h, read-out: Activity.
A short description of experiment [4]: Antiproliferative activity against human SF268 cells assessed as cell growth at 10^-5 M after 48 hrs by sulforhodamine B assay. To be noted: SF-268, 48 h, read-out: Activity.
Experiment [5] in a line: Antiproliferative activity against human SF539 cells assessed as cell growth at 10^-5 M after 48 hrs by sulforhodamine B assay. To be noted: SF-539, 48 h, read-out: Activity.
The subject of experiment [6] is U-251. Kind of experiment: Antiproliferative activity against human U251 cells assessed as cell growth at 10^-5 M after 48 hrs by sulforhodamine B assay. To be noted: U-251, 48 h, read-out: Activity.
The subject of another experiment is M14. Kind of experiment: Antiproliferative activity against human M14 cells assessed as cell growth at 10^-5 M after 48 hrs by sulforhodamine B assay. To be noted: M14, 48 h, read-out: Activity.
Another experiment deals with SK-MEL-2. The experiment is described as follows: Antiproliferative activity against human SK-MEL-2 cells assessed as cell growth at 10^-5 M after 48 hrs by sulforhodamine B assay. The note with it: SK-MEL-2, 48 h, read-out: Activity.
A further experiment has as its system SK-MEL-28. The experiment is described as follows: Antiproliferative activity against human SK-MEL-28 cells assessed as cell growth at 10^-5 M after 48 hrs by sulforhodamine B assay. To be noted: SK-MEL-28, 48 h, read-out: Activity.
The next experiment has as its system SK-MEL-5. Kind of experiment: Antiproliferative activity against human SK-MEL-5 cells assessed as cell growth at 10^-5 M after 48 hrs by sulforhodamine B assay. To be noted: SK-MEL-5, 48 h, read-out: Activity.
Experiment [7] in a line: Antiproliferative activity against human UACC257 cells assessed as cell growth at 10^-5 M after 48 hrs by sulforhodamine B assay. The note with it: UACC-257, 48 h, read-out: Activity.
Experiment [8] in a line: Antiproliferative activity against human OVCAR4 cells assessed as cell growth at 10^-5 M after 48 hrs by sulforhodamine B assay. The note with it: OVCAR-4, 48 h, read-out: Activity.
The nature of experiment [9]: Antiproliferative activity against human OVCAR8 cells assessed as cell growth at 10^-5 M after 48 hrs by sulforhodamine B assay. The note with it: OVCAR-8, 48 h, read-out: Activity.
The nature of experiment [10]: Antiproliferative activity against human NCI-ADR-RES cells assessed as cell growth at 10^-5 M after 48 hrs by sulforhodamine B assay. The note with it: read-out: Activity.
Another experiment concerns A498. The experiment is described as follows: Antiproliferative activity against human A498 cells assessed as cell growth at 10^-5 M after 48 hrs by sulforhodamine B assay. To be noted: A498, 48 h, read-out: Activity.
A further experiment relates to ACHN. The experiment is described as follows: Antiproliferative activity against human ACHN cells assessed as cell growth at 10^-5 M after 48 hrs by sulforhodamine B assay. The note with it: read-out: Activity.
Experiment [11] is described as follows: Antiproliferative activity against human Caki1 cells assessed as cell growth at 10^-5 M after 48 hrs by sulforhodamine B assay. To be noted: CAKI-1, 48 h, read-out: Activity.
A short description of experiment [12]: Antiproliferative activity against human RXF393 cells assessed as cell growth at 10^-5 M after 48 hrs by sulforhodamine B assay. The note with it: RXF 393, 48 h, read-out: Activity.
A further experiment deals with SN12C. The experiment is described as follows: Antiproliferative activity against human SN12C cells assessed as cell growth at 10^-5 M after 48 hrs by sulforhodamine B assay. To be noted: read-out: Activity.
A short description of experiment [13]: Antiproliferative activity against human TK10 cells assessed as cell growth at 10^-5 M after 48 hrs by sulforhodamine B assay. The note with it: TK-10, 48 h, read-out: Activity.
The test system of a further experiment is MCF7. The experiment is described as follows: Antiproliferative activity against human MCF7 cells assessed as cell growth at 10^-5 M after 48 hrs by sulforhodamine B assay. To be noted: MCF7, 48 h, read-out: Activity.
For a further experiment, the system named is MDA-MB-468. The experiment is described as follows: Antiproliferative activity against human MDA-MB-468 cells assessed as cell growth at 10^-5 M after 48 hrs by sulforhodamine B assay. To be noted: MDA-MB-468, 48 h, read-out: Activity.
Experiment [14] is described as follows: Antiproliferative activity against human SKOV3 cells assessed as cell growth at 10^-5 M after 48 hrs by sulforhodamine B assay. To be noted: SK-OV-3, 48 h, read-out: Activity.
The test system of experiment [15] is U-251. The experiment is described as follows: Antiproliferative activity against human U251 cells assessed as growth inhibition after 48 hrs by sulforhodamine B assay. To be noted: U-251, 48 h.
The test system of a further experiment is NCI-H460. The experiment is described as follows: Antiproliferative activity against human NCI-H460 cells assessed as growth inhibition after 48 hrs by sulforhodamine B assay. The note with it: NCI-H460, 48 h.

On to `CNC(=O)c1cc(Oc2ccc3nc(NC(=O)c4ccc5ncccc5c4)sc3c2)ccn1`, for which the growth at 10 µM with CCRF-CEM stood at 91%; in experiment [1], 87.5%; with K562 it was 93.7%; in experiment [2] it was 71.9%; with NCI-H23 it was 92.7%; in the experiment on HT-29, 69.9%. Besides, the growth at 10 µM in experiment [3] is 112%; in [4], 97.5%; in experiment [5], 107%; in the experiment with U-251 [6], 93.6%; with M14 it was 102%; in the experiment with SK-MEL-2, 86.2%. In addition, the growth at 10 µM came out at 101% in the experiment on SK-MEL-28; 86.4% in the experiment on SK-MEL-5; 93.1% in [7]; 87.4% in experiment [8]; 100% in [9]; 88.8% in experiment [10]. The growth at 10 µM was 88.3% with A498; 102% in the experiment with ACHN; 89.9% in experiment [11]; 109% in experiment [12]; 92.6% in the experiment with SN12C; 90.5% in [13]. The growth at 10 µM in the experiment with MCF7 was found to be 88%; with MDA-MB-468, 73.7%.
Turning to `CNC(=O)c1cc(Oc2ccc3nc(NC(=O)c4ccc(Cl)c(C(F)(F)F)c4)sc3c2)ccn1`, the growth at 10 µM was found to be 68.4% in the experiment on CCRF-CEM; 89.4% in experiment [1]; 69.9% with K562; 64.8% in [2]; 69.1% with NCI-H23; 68.1% with HT-29. Further, the growth at 10 µM turned out to be 92.4% in experiment [3]; 85.3% in [4]; 69.9% in [5]; 59.2% with U-251 [6]; 89.9% with M14; 96.5% in the experiment on SK-MEL-2. Further, the growth at 10 µM worked out at 83% with SK-MEL-28; 70.9% with SK-MEL-5; 75.3% in experiment [7]; 36.7% in [8]; 57.2% in [9]; 64.9% in experiment [10]. The growth at 10 µM stood at 85.3% in experiment [14]; 69% with A498; 60.6% in the experiment with ACHN; 95.2% in [11]; 47.9% in experiment [12]; 75.6% in the experiment on SN12C. For the same compound, the growth at 10 µM in experiment [13] was determined as 92.8%; in the experiment with MCF7, 64.1%; in the experiment with MDA-MB-468 it was 48.5%.
As for `CNC(=O)c1cc(Oc2ccc(NC(=O)Nc3ccc(Cl)c(C(F)(F)F)c3)cc2)ccn1` [SORAFENIB], in the experiment with U-251 [15], the GI50 amounted to 2000 nM and the concentration for total growth inhibition (TGI) stood at 6.31 µM. Also, in the experiment on NCI-H460, the GI50 was found to be 2510 nM and the TGI stood at 10 µM.
As for `CNC(=O)c1cc(Oc2ccc3nc(NC(=O)Nc4ccc(Cl)cc4)sc3c2)ccn1`, the growth at 10 µM with CCRF-CEM was 83.2%; in experiment [1], 98.9%; in the experiment with K562, 65.6%; in [2], 81.7%; in the experiment with NCI-H23, 69%; in the experiment with HT-29 it was 68.8%. Besides, the growth at 10 µM came to 101% in [3]; 56.2% in experiment [4]; 83.5% in experiment [5]; 37.3% in the experiment with U-251 [6]; 63% in the experiment on M14; 81.1% in the experiment with SK-MEL-2. Also, the growth at 10 µM stood at 73.3% in the experiment on SK-MEL-5; 13% in experiment [8]; 57.2% in experiment [9]; 83.6% in experiment [10]; 82% in [14]; 117% in the experiment with A498. The growth at 10 µM with ACHN stood at 64.9%; in experiment [11], 94.7%; in [12], 50.8%; with SN12C, 62.4%; in [13] it was 62.3%; in the experiment on MCF7, 69.5%. In the experiment with MDA-MB-468, the growth at 10 µM came to 55.1%.
With `CNC(=O)c1cc(Oc2ccc3nc(NC(=O)c4cccc(F)n4)sc3c2)ccn1`, the growth at 10 µM amounted to 64.7% in the experiment with CCRF-CEM; 78.2% in [1]; 77.5% in the experiment on K562; 70.4% in [2]; 83% in the experiment with NCI-H23; 96% in the experiment on HT-29. Moreover, the growth at 10 µM in experiment [3] was 105%; in experiment [4], 89.6%; in experiment [5] it was 96.6%; in the experiment with U-251 [6], 79.9%; in the experiment on M14, 91.8%; in the experiment with SK-MEL-2, 110%. Further, the growth at 10 µM was 105% in the experiment with SK-MEL-28; 71.8% in the experiment on SK-MEL-5; 80.3% in experiment [7]; 76% in experiment [8]; 85% in experiment [9]; 88.8% in [10]. Also, the growth at 10 µM in [14] worked out at 116%; in the experiment on A498, 72.6%; with ACHN, 94.5%; in experiment [11] it was 83%; in experiment [12], 101%; with SN12C it was 84.9%. In addition, the growth at 10 µM was found to be 133% in [13], 86.3% in the experiment on MCF7 and 71.3% with MDA-MB-468.
On to `CNC(=O)c1cc(Oc2ccc3nc(NC(=O)Nc4ccc(C(F)(F)F)cc4)sc3c2)ccn1`, for which the growth at 10 µM amounted to 68.1% with CCRF-CEM; 120% in experiment [1]; 76.3% in the experiment with K562; 70.4% in [2]; 63.4% with NCI-H23; 78.4% with HT-29. The growth at 10 µM in experiment [3] stood at 37.9%; in experiment [4] it was 65%; in [5], 82.2%; with U-251 [6], 22.4%; with M14, 35.8%; in the experiment on SK-MEL-2 it was 92.9%. Further, the growth at 10 µM in the experiment on SK-MEL-28 is 68.9%; in the experiment with SK-MEL-5 it was 56.9%; in experiment [7], 86.7%; in experiment [8], 37.7%; in experiment [9] it was 48.5%; in [10], 58.4%. Besides, the growth at 10 µM in experiment [14] was found to be 105%; in the experiment with A498, 98.8%; in the experiment with ACHN, 73.4%; in experiment [11], 92%; in experiment [12], 85.5%; in the experiment with SN12C it was 71.2%. Besides, the growth at 10 µM came out at 55.3% in [13], 42% with MCF7 and 49.9% in the experiment on MDA-MB-468.
